Each block holds one compound with its values, some of them ahead of it.
Legend:
[1] = target: T1, TYRO3 (Homo sapiens, UniProt Q06418); assay: TR-FRET kinase activity assay, TYRO3; format: biochemical; conditions: ATP at Km, 60 minutes
T1 sequence (Q06418 41-890): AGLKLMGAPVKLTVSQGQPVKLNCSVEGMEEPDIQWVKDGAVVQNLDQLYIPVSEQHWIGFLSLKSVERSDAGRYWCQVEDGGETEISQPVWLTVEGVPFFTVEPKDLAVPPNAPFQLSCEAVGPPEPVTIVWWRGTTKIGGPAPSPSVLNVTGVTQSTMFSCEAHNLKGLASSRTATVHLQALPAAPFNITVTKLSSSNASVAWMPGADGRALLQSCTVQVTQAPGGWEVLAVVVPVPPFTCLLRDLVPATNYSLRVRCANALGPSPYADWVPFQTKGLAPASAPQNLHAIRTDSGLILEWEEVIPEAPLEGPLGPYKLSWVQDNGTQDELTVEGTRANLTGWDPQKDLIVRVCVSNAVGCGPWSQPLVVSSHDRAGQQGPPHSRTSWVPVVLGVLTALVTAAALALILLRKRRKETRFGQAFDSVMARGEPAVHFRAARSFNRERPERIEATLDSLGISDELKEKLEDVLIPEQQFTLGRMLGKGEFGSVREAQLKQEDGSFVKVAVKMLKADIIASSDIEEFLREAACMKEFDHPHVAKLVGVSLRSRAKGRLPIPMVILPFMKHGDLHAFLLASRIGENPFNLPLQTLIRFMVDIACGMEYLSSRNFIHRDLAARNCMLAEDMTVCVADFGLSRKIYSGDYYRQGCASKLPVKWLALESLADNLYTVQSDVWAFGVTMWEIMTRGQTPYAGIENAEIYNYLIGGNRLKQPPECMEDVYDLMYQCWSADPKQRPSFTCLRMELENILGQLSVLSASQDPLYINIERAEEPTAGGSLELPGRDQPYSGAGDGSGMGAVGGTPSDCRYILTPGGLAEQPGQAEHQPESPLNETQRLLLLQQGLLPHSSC
How it was run: (§1)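 Enzyme, fluorescent-labeled peptide substrate and compound were mixed in 50 mM HEPES pH 7.5, 10 mM MgCl2, 1 mM EGTA, 0.01% Brij 35, 1 mM DTT at RT; ATP at each enzyme's Km started the reaction. After 60 min, EDTA quench and Eu-anti-phosphotyrosine-site antibody (30 min, dark); TR-FRET read, IC50 derived.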

[2] = target: T2, MERTK (Homo sapiens, UniProt Q12866); assay: TR-FRET kinase activity assay, MERTK; format: biochemical; conditions: for IC50: TR-FRET activity assay, ATP at Km, 60 minutes, read-out: Mer IC50; for Mer/Flt3 ratio (FLT3 IC50/Mer IC50): ratio calculated as FLT3 IC50/Mer IC50
T2 sequence (Q12866 21-999): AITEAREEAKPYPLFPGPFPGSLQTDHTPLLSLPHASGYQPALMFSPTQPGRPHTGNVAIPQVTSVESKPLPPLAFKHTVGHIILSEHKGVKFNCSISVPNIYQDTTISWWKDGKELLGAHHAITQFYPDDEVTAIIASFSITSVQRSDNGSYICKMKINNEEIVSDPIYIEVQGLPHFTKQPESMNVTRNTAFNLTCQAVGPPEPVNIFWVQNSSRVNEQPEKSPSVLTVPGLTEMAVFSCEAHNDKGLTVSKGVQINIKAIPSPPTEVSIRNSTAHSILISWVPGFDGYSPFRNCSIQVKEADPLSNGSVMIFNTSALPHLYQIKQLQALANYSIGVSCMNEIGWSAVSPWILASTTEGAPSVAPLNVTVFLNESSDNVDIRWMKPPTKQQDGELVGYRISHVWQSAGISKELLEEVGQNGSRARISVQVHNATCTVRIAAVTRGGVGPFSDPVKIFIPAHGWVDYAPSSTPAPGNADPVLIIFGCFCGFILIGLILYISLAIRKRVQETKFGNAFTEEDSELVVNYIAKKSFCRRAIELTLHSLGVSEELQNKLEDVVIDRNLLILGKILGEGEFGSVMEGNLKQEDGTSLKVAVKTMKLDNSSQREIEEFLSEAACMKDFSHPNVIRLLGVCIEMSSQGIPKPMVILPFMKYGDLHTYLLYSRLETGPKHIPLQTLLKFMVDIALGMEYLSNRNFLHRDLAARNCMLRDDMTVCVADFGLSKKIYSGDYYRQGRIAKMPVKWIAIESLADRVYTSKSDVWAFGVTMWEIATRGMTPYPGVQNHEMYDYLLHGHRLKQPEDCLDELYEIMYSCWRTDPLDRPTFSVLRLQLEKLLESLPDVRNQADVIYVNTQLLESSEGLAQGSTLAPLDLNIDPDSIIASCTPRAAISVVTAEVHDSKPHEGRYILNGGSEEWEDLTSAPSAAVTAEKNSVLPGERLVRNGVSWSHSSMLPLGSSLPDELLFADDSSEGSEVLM
How it was run: as §1

SMILES: O[C@H]1CC[C@H](c2cnc(OC3CCOCC3)c3cnc(N[C@H]4CCC(F)(F)C4)nc32)CC1 [Compound 336]
- IC50 [1]: 100 to 1000 nM
- IC50 [2]: ≤ 100 nM
- Mer/Flt3 ratio (FLT3 IC50/Mer IC50) [2]: ++ (a ratio of between 10 and 100)

SMILES: C[C@H](CC(F)(F)F)Nc1ncc2c(OC3CCOCC3)ncc([C@H]3CC[C@H](O)CC3)c2n1 [Compound 338]
- IC50 [1]: 100 to 1000 nM
- IC50 [2]: ≤ 100 nM
- Mer/Flt3 ratio (FLT3 IC50/Mer IC50) [2]: +++ (a ratio of >100)

SMILES: CCC1(Nc2ncc3c(OC4CCOCC4)ncc([C@H]4CC[C@H](O)CC4)c3n2)CC1 [Compound 339]
- IC50 [1]: 100 to 1000 nM
- IC50 [2]: ≤ 100 nM
- Mer/Flt3 ratio (FLT3 IC50/Mer IC50) [2]: +++ (a ratio of >100)

SMILES: COC[C@H](C)Nc1ncc2c(OC3C[C@H]4CC[C@@H](C3)N4C)ncc([C@H]3CC[C@H](O)CC3)c2n1 (stereo partly drawn) [Compound 343]
- IC50 [1]: ≤ 100 nM
- IC50 [2]: ≤ 100 nM
- Mer/Flt3 ratio (FLT3 IC50/Mer IC50) [2]: +++ (a ratio of >100)

SMILES: COC[C@H](C)Nc1ncc2c(OC3CCN(c4ncccn4)CC3)ncc([C@H]3CC[C@H](O)CC3)c2n1 [Compound 344]
- IC50 [1]: 100 to 1000 nM
- IC50 [2]: ≤ 100 nM
- Mer/Flt3 ratio (FLT3 IC50/Mer IC50) [2]: +++ (a ratio of >100)

SMILES: COC[C@H](C)Nc1ncc2c(C3CC3)ncc([C@H]3CC[C@H](O)CC3)c2n1 [Compound 349]
- IC50 [1]: ≤ 100 nM
- IC50 [2]: ≤ 100 nM
- Mer/Flt3 ratio (FLT3 IC50/Mer IC50) [2]: +++ (a ratio of >100)

SMILES: COC[C@@H](C)Nc1ncc2c(OC3CC(O)C3)ncc([C@H]3CC[C@H](O)CC3)c2n1 (stereo partly drawn) [Compound 351]
- IC50 [1]: ≤ 100 nM
- IC50 [2]: ≤ 100 nM
- Mer/Flt3 ratio (FLT3 IC50/Mer IC50) [2]: +++ (a ratio of >100)

SMILES: C[C@@H](CC(F)(F)F)Nc1ncc2c(OC3CCN(C)CC3)ncc([C@H]3CC[C@H](O)CC3)c2n1 [Compound 352]
- IC50 [1]: ≤ 100 nM
- IC50 [2]: ≤ 100 nM
- Mer/Flt3 ratio (FLT3 IC50/Mer IC50) [2]: +++ (a ratio of >100)

SMILES: O=C(O)[C@H]1CC[C@@H](Nc2ncc3c(OC4CCOCC4)ncc([C@H]4CC[C@H](O)CC4)c3n2)CC1 [Compound 353]
- IC50 [1]: 1000 to 10000 nM
- IC50 [2]: 1000 to 10000 nM
- Mer/Flt3 ratio (FLT3 IC50/Mer IC50) [2]: + (a ratio of >2.0 and <10)

Other lines, results leading:

- IC50 [1]: 100 to 1000 nM
- IC50 [2]: ≤ 100 nM
- Mer/Flt3 ratio (FLT3 IC50/Mer IC50) [2]: +++ (a ratio of >100)
SMILES: COC[C@H](C)Nc1ncc2c(OC3CCOCC3)ncc(-c3ccc(N)nc3)c2n1 [Compound 337]

- IC50 [1]: 100 to 1000 nM
- IC50 [2]: ≤ 100 nM
- Mer/Flt3 ratio (FLT3 IC50/Mer IC50) [2]: +++ (a ratio of >100)
SMILES: CNC(=O)N[C@H]1CC[C@H](c2cnc(OC3CCOCC3)c3cnc(N[C@@H](C)COC)nc32)CC1 [Compound 340]

- IC50 [1]: 100 to 1000 nM
- IC50 [2]: ≤ 100 nM
- Mer/Flt3 ratio (FLT3 IC50/Mer IC50) [2]: +++ (a ratio of >100)
SMILES: CNS(=O)(=O)N1CCC(c2cnc(OC3CCOCC3)c3cnc(N[C@@H](C)COC)nc23)CC1 [Compound 341]

- IC50 [1]: 1000 to 10000 nM
- IC50 [2]: 1000 to 10000 nM
- Mer/Flt3 ratio (FLT3 IC50/Mer IC50) [2]: + (a ratio of >2.0 and <10)
SMILES: COC[C@H](C)Nc1ncc2c(OC3CCOCC3)ncc(-c3ccnnc3)c2n1 [Compound 342]

- IC50 [1]: 1000 to 10000 nM
- IC50 [2]: 100 to 1000 nM
- Mer/Flt3 ratio (FLT3 IC50/Mer IC50) [2]: ++ (a ratio of between 10 and 100)
SMILES: CNC(=O)N1CCC(c2cnc(OC3CCOCC3)c3cnc(N[C@@H](C)COC)nc23)CC1 [Compound 345]

- IC50 [1]: 1000 to 10000 nM
- IC50 [2]: 100 to 1000 nM
- Mer/Flt3 ratio (FLT3 IC50/Mer IC50) [2]: + (a ratio of >2.0 and <10)
SMILES: COC[C@H](C)Nc1ncc2c(OC3CCOCC3)ncc(C3CCCCN3)c2n1 (stereo partly drawn) [Compound 346]

- IC50 [1]: 100 to 1000 nM
- IC50 [2]: 100 to 1000 nM
- Mer/Flt3 ratio (FLT3 IC50/Mer IC50) [2]: + (a ratio of >2.0 and <10)
SMILES: COC[C@H](C)Nc1ncc2c(OC3CCOCC3)ncc(-c3cn[nH]c3)c2n1 [Compound 347]

- IC50 [1]: 1000 to 10000 nM
- IC50 [2]: 100 to 1000 nM
- Mer/Flt3 ratio (FLT3 IC50/Mer IC50) [2]: ++ (a ratio of between 10 and 100)
SMILES: COC[C@H](C)Nc1ncc2c(OC3CCOCC3)ncc(C3CCCCN3C)c2n1 (stereo partly drawn) [Compound 350]

- IC50 [1]: 100 to 1000 nM
- IC50 [2]: ≤ 100 nM
- Mer/Flt3 ratio (FLT3 IC50/Mer IC50) [2]: +++ (a ratio of >100)
SMILES: COC[C@H](C)Nc1ncc2c(O[C@@H]3CCOC3)ncc([C@H]3CC[C@H](O)CC3)c2n1 [Compound 354]

Reference: US20200291018A1, “TAM KINASE INHIBITORS” (SYROS PHARMACEUTICALS, INC., priority 2017, published 2020)
